Data on 61 molecules can be found in ChEMBL document CHEMBL1143982, “A comparative molecular field and comparative molecular similarity indices analyses (CoMFA and CoMSIA) of N-phenyl-N'-(2-chloroethyl)ureas targeting the colchicine-binding site as anticancer agents” (2008).

The test system of one test is HT-29. Kind of test: Antiproliferative activity against human HT29 cells. The format is functional.
For a further test, the system named is MDA-MB-231. Kind of test: Antiproliferative activity against human MDA-MB-231 cells. The format is functional.

One may read the GI50 as the concentration at which growth is held to half of that of the control. Read a low GI50 as more potent growth inhibition. In the case of `CCC(C)c1ccc(NC(=O)N[C@H](C)CCl)cc1` (stereo partly specified), the GI50 in the test with HT-29 was determined as 8.9 µM.

For the molecule `CCC(C)c1ccc(NC(=O)N[C@H](CC)CCl)cc1` (stereo partly specified), in the test on HT-29, the GI50 came out at 56 µM.

On to `O=C(NCCCl)Nc1ccc2c(c1)-c1ccccc1C2`, for which, in the test with HT-29, the GI50 was found to be 13 µM.

On to `CC(C)(C)c1ccc(NC(=O)NCCCl)cc1`, for which it took 9.1 µM to inhibit growth in the test on HT-29 by half (GI50).

As to `C[C@@H](CCl)NC(=O)Nc1ccc2c(c1)CCC2`, the GI50 in the test with HT-29 stood at 100 µM.

The molecule `CC[C@@H](CCl)NC(=O)Nc1ccc(I)cc1` displayed a GI50 in the test with HT-29 of 51 µM.

In the test with HT-29, `CCC(C)c1ccc(NC(=O)N[C@@H](CC)CCl)cc1` (stereo partly specified) gave a GI50 of 109 µM.

For `CC(C)c1ccc(NC(=O)N[C@@H](C)CCl)cc1`, the concentration for 50% growth inhibition (GI50) in the test with HT-29 worked out at 69 µM.

Turning to `CC[C@H](CCl)NC(=O)Nc1ccc(C(C)(C)C)cc1`, the GI50 with HT-29 came to 56 µM.

For the molecule `CCC(C)c1ccc(NC(=O)N[C@@H](C)CCl)cc1` (stereo partly specified), the GI50 in the test on HT-29 worked out at 54 µM.

Turning to `O=C(NCCCl)Nc1ccc2ccccc2c1`, it took 5.5 µM to inhibit growth in the test with HT-29 by half (GI50).

With `O=C(NCCCl)Nc1ccc2c(c1)CCC2`, the GI50 in the test on HT-29 stood at 10 µM.

For `C[C@@H](CCl)NC(=O)Nc1ccc2c(c1)-c1ccccc1C2`, in the test on HT-29, halving of growth (GI50) required 28 µM.

For `C[C@H](CCl)NC(=O)Nc1ccc(C(C)(C)C)cc1`, the GI50 in the test on HT-29 came out at 8.9 µM.

The molecule `C[C@@H](CCl)NC(=O)Nc1ccc(C(C)(C)C)cc1` displayed a GI50 with HT-29 of 55 µM.

`CC(C)c1ccc(NC(=O)N[C@H](C)CCl)cc1` had a GI50 with HT-29 of 1.1 µM.

`C[C@@H](CCl)NC(=O)Nc1ccc2ccccc2c1` showed a GI50 in the test on HT-29 of 181 µM.

`C[C@H](CCl)NC(=O)Nc1ccc2ccccc2c1`: the GI50 with HT-29 came out at 4.9 µM.

With `C[C@@H](CCl)NC(=O)Nc1ccc(I)cc1`, the GI50 in the test with HT-29 worked out at 49 µM.

`Cc1cc(C)c(NC(=O)NCCCl)c(C)c1` displayed a concentration for 50% growth inhibition (GI50) in the test with MDA-MB-231 of 587 µM.

Regarding `O=C(NCCCl)Nc1ccc2[nH]ncc2c1`, in the test on HT-29, halving of growth (GI50) required 48 µM.

For the molecule `CCNC(=O)Nc1ccc(C(C)CC)cc1` (stereo unspecified), halving of growth in the test on HT-29 (GI50) required 132 µM.

Molecule `CCc1ccc(NC(=O)NCCCl)cc1` yielded a GI50 in the test on HT-29 of 6.4 µM.

In turn, `Cc1cc(C)cc(NC(=O)NCCCl)c1` came in with a GI50 in the test on HT-29 of 20 µM.

The molecule `CCNC(=O)Nc1ccc(C(C)(C)C)cc1` returned a GI50 in the test on HT-29 of 83 µM.

For `CCCCCCc1ccc(NC(=O)NCCCl)cc1`, the GI50 in the test with HT-29 was 12 µM.

In the test with HT-29, `O=C(NCCCl)Nc1cccc2c1CCCC2` had a GI50 of 400 µM.

`CNC(=O)Nc1ccc(C(C)(C)C)cc1`: the GI50 in the test on HT-29 stood at 400 µM.

In the case of `Cc1ccc(NC(=O)NCCCl)cc1C`, the 50% growth inhibitory concentration (GI50) in the test with HT-29 was determined as 5.4 µM.

Take `CC(C)Cc1ccc(NC(=O)NCCCl)cc1`: in the test on HT-29, the GI50 was 21 µM.

Regarding `CCCNC(=O)Nc1ccc(C(C)CC)cc1` (stereo unspecified), the GI50 with HT-29 was 133 µM.

In the case of `CCCc1ccc(NC(=O)NCCCl)cc1`, the GI50 in the test with HT-29 was found to be 23 µM.

For the molecule `O=C(NCCCl)Nc1ccc(Br)cc1`, the GI50 in the test on HT-29 turned out to be 9 µM.

`Cc1ccc(NC(=O)NCCCl)cc1` had a GI50 in the test on HT-29 of 23 µM.

`CCCCCCCCc1ccc(NC(=O)NCCCl)cc1` came in with a GI50 in the test with MDA-MB-231 of 48 µM.

Turning to `Cc1cccc(NC(=O)NCCCl)c1`, growth in the test on MDA-MB-231 was halved (GI50) at 88 µM.

Molecule `CC(C)(C)Cc1ccc(NC(=O)NCCCl)cc1` registered a GI50 in the test with HT-29 of 36 µM.

Take `CCCNC(=O)Nc1ccc(C(C)C)cc1`: the GI50 with HT-29 came out at 76 µM.

`CNC(=O)Nc1ccc(C(C)C)cc1` yielded a GI50 in the test on HT-29 of 400 µM.

Consider `CCC(C)c1ccc(NC(=O)NC)cc1` (stereo unspecified), for which, in the test on HT-29, the GI50 is 400 µM.

Regarding `CCCCCc1ccc(NC(=O)NCCCl)cc1`, in the test on HT-29, halving of growth (GI50) required 12 µM.

In turn, `CCc1cccc(NC(=O)NCCCl)c1` displayed a concentration for 50% growth inhibition (GI50) in the test on MDA-MB-231 of 16 µM.

In the test on MDA-MB-231, `CCc1ccccc1NC(=O)NCCCl` registered a GI50 of 400 µM.

In the test with HT-29, `CC(C)(C)c1ccc(NC(=O)NCCCCl)cc1` showed a GI50 of 21 µM.

For `CCCCCCCCCCCc1ccc(NC(=O)NCCCl)cc1`, in the test with MDA-MB-231, the GI50 was found to be 587 µM.

In turn, `CC[C@@H](CCl)NC(=O)Nc1ccc(C(C)(C)C)cc1` showed a GI50 in the test with HT-29 of 109 µM.

For `CCNC(=O)Nc1ccc(C(C)C)cc1`, growth in the test with HT-29 was halved (GI50) at 400 µM.

Molecule `O=C(NCCCl)Nc1ccc(Cl)cc1` yielded a GI50 in the test on HT-29 of 14 µM.

As to `O=C(NCCCl)Nc1cccc2ccccc12`, the GI50 in the test on MDA-MB-231 is 220 µM.

In the case of `CC(C)CCc1ccc(NC(=O)NCCCl)cc1`, the GI50 in the test with HT-29 amounted to 33 µM.

`CCCNC(=O)Nc1ccc(C(C)(C)C)cc1` gave a GI50 in the test on HT-29 of 35 µM.

On to `CCCCc1ccc(NC(=O)NCCCl)cc1`, for which the GI50 with HT-29 amounted to 22 µM.

For the molecule `CC(C)c1ccc(NC(=O)NCCCl)cc1`, halving of growth with HT-29 (GI50) required 5 µM.

As for `CC[C@H](CCl)NC(=O)Nc1ccc(I)cc1`, the GI50 with HT-29 amounted to 22 µM.

Turning to `O=C(NCCCl)Nc1ccc(I)cc1`, the GI50 in the test with HT-29 was determined as 3.9 µM.

Take `CCC(C)c1ccc(NC(=O)NCCCl)cc1` (stereo unspecified): halving of growth with HT-29 (GI50) required 3.6 µM.

Molecule `CC[C@H](CCl)NC(=O)Nc1ccc(C(C)C)cc1` registered a GI50 in the test on HT-29 of 30 µM.

Consider `C[C@H](CCl)NC(=O)Nc1ccc2c(c1)-c1ccccc1C2`, for which growth with HT-29 was halved (GI50) at 6.6 µM.

Regarding `C[C@H](CCl)NC(=O)Nc1ccc(I)cc1`, in the test with HT-29, halving of growth (GI50) required 0.85 µM.

Consider `CC[C@@H](CCl)NC(=O)Nc1ccc(C(C)C)cc1`, for which it took 54 µM to inhibit growth in the test with HT-29 by half (GI50).

Take `C[C@H](CCl)NC(=O)Nc1ccc2c(c1)CCC2`: in the test on HT-29, it took 6.4 µM to inhibit growth by half (GI50).
